How the values were obtained:
[1] = Compound A loading onto CalliSpheres microspheres (residual concentration by HPLC); type: physicochemical; details: for Concentration of Residual: 1 g microspheres 100-300 μm, 2 mg in 4 ml NaOAc/HOAc buffer 100 mM pH5.0; for Amount of Compound Loaded: onto 1 g microspheres
Experimental: Microspheres (1 g, 100-300 μm, CalliSpheres® CallisynBiomedical, Inc.) were immersed into Compound A solution (2 mg in 4 ml of NaOAc/HOAc buffer (100 mM, pH5.0)) using a 10 mL disposable syringe. Residual compound concentration remaining in the depleted loading solution over time was determined by HPLC method.
(§1) HPLC was performed using the following instrument and/or conditions: […]

[2] = Elution of Compound A from loaded microspheres using the T-Apparatus; type: physicochemical; details: 50 mL PBS pH 7.4, 25° C.
Experimental: The microspheres loaded with Compound A were eluted into 50 mL of phosphate buffer solution (PBS, pH 7.4) at 25° C. using a T-Apparatus (Lewis A L, Gonzalez M V, Lloyd A W, et al. DC bead: in vitro characterization of a drug-delivery device for transarterial chemoembolization. J Vasc Interv Radiol, 2006, 17: 335-42). The concentration of Compound A was determined using HPLC method.
as §1

Na+/K+-ATPase = Na+/K+-ATPase inhibition; type: biochemical; details: read-out: IC50 against Na+/K+-ATPase

Compound: C[C@]12CC[C@H](OC(=O)N3CCNCC3)C[C@H]1CC[C@@H]1[C@@H]2CC[C@]2(C)[C@@H](c3ccc(=O)oc3)CC[C@]12O [Compound A, (3S,5R,8R,9S,10S,13R,14S,17R)-14-hydroxy-10,13-dimethyl-17-(2-oxo-2H-pyran-5-yl)hexadecahydro-1H-cyclopenta[α]phenanthren-3-yl piperazine-1-carboxylate]
- Concentration of Residual ([1]; time 0 h): 458000 ng/mL
- Amount of Compound Loaded ([1]; time 0 h): 0 mg
- Concentration of Residual ([1]; time 0.25 h): 91000 ng/mL
- Amount of Compound Loaded ([1]; time 0.25 h): 1.47 mg
- Concentration of Residual ([1]; time 0.5 h): 81000 ng/mL
- Amount of Compound Loaded ([1]; time 0.5 h): 1.51 mg
- Concentration of Residual ([1]; time 0.75 h): 83000 ng/mL
- Amount of Compound Loaded ([1]; time 0.75 h): 1.50 mg
- Concentration of Residual ([1]; time 1 h): 60000 ng/mL
- Amount of Compound Loaded ([1]; time 1 h): 1.59 mg
- Amount of Compound Eluted ([2]; time 0.083 h): 0.63 mg
- Concentration of Compound Eluted ([2]; time 0.083 h): 13000 ng/mL
- Amount of Compound Eluted ([2]; time 0.5 h): 0.67 mg
- Concentration of Compound Eluted ([2]; time 0.5 h): 14000 ng/mL
- Amount of Compound Eluted ([2]; time 0.75 h): 0.70 mg
- Concentration of Compound Eluted ([2]; time 0.75 h): 14000 ng/mL
- Amount of Compound Eluted ([2]; time 1 h): 0.70 mg
- Concentration of Compound Eluted ([2]; time 1 h): 14000 ng/mL
- Amount of Compound Eluted ([2]; time 2 h): 0.76 mg
- Concentration of Compound Eluted ([2]; time 2 h): 15000 ng/mL
- Amount of Compound Eluted ([2]; time 4 h): 0.94 mg
- Concentration of Compound Eluted ([2]; time 4 h): 19000 ng/mL
- Amount of Compound Eluted ([2]; time 6 h): 1.10 mg
- Concentration of Compound Eluted ([2]; time 6 h): 22000 ng/mL
- Amount of Compound Eluted ([2]; time 24 h): 1.21 mg
- Concentration of Compound Eluted ([2]; time 24 h): 24000 ng/mL
- IC50 (Na+/K+-ATPase): ~20 nM

Source: US20240207256A1, “CERTAIN CHEMICAL ENTITIES, COMPOSITIONS, AND METHODS” (NeuPharma, Inc, priority 2021, published 2024)
